# Like-named read-outs stand apart in the source and are kept apart here. Marks after values point to notes of the source that are not given here.
# Assays:
# M. tuberculosis H37Rv [1] = assay: microbe, parasite or virus in culture; assay type: cell-based, Mycobacterium tuberculosis
# in vivo = assay type: in vivo, CD-1 female mice; conditions: for fAUC/MIC / fT>MIC: corrected for plasma protein binding; for T>MIC: percentage of dosing interval with plasma levels above MIC
# [2] = system: Rv0577, Rv0911, Rv2298 and lldD2; assay type: binding, M. bovis BCG
# MTB pMV262-rv0577 = assay: microbe, parasite or virus in culture; assay type: cell-based; conditions: Mycobacterium tuberculosis, read-out: MTB pMV262-rv0577 MIC50
# M. tuberculosis H37Rv [3] = assay type: cell-based, Mycobacterium tuberculosis; conditions: for very rapid ATP depletion in M. tuberculosis: reference compounds, 24 h; for ATP pool depleted: in the presence of glycerol, 24 h after treatment
# in vitro = assay type: cell-based; conditions: human
# M. tuberculosis H37Rv [4] = assay: Metabolomic profiling by LC/MS; assay type: cell-based, Mycobacterium tuberculosis; conditions: 24 h after treatment, in the presence of glycerol
# [5] = female, CD-1, mouse, in vivo, po, 100 mg/kg
# [6] = Mycobacterium tuberculosis, H37RV
# [7] = Mycobacterium tuberculosis, H37RV, read-out: MTB H37Rv MIC50
# [8] = female, CD-1, mouse, in vivo, po, 25 mg/kg
# [9] = mouse, single oral dose 25 mg kg^−1, lung
structure (smiles),measurement,setting,value
"O=C(CO)COP(=O)(O)O [DHAP, dihydroxyacetone phosphate]",MIC50,M. tuberculosis H37Rv [1],1200 µM
O=P(O)(O)OCC(O)CO (centres unmarked) [glycerol phosphate],MIC50,M. tuberculosis H37Rv [1],12500 µM
"CC[C@@H](CO)NCCN[C@@H](CC)CO [EMB, ethambutol, reference compound]",AUC,in vivo; [5],8000 ng·h/mL
same,Cmax,in vivo; [5],2500 ng/mL
same,Tmax,in vivo; [5],0.5 h
same,half-life,in vivo; [5],1.8 h
same,Lung AUC,"in vivo; mouse, 100 mg kg^−1, lung",145 µg·h/g
same,Lung AUC/MIC,"in vivo; mouse, 100 mg kg^−1, lung",247
same,fAUC/MIC,"in vivo; mouse, 100 mg kg^−1",10
same,fT>MIC,"in vivo; mouse, 100 mg kg^−1",15%
same,T>MIC,"in vivo; mouse, 100 mg kg^−1",17%
"Cc1ccc(NC(=O)c2cccc(NCCN)c2)cc1Nc1nccn1-c1cc(NC2CC2)ncn1 [Compound 4, 3-(2-Aminoethylamino)-N-(3-(1-(6-(cyclopropylamino)pyrimidin-4-yl)-1H-imidazol-2-ylamino)-4-methylphenyl)benzamide]",binding of candidate proteins to sepharose-linked 4 in the presence of free 4,[2],dramatically decreased
same,MIC50,M. tuberculosis H37Rv [1]; [6],0.21 ± 0.01 µM
"[H]/N=C(/N)N[C@H]1[C@H](O)[C@@H](O)[C@H](O[C@@H]2O[C@@H](C)[C@](O)(C=O)[C@H]2O[C@@H]2O[C@@H](CO)[C@H](O)[C@@H](O)[C@@H]2NC)[C@@H](N/C(N)=N\[H])[C@@H]1O [Streptomycin, streptomycin, reference compound]",activity against M. tuberculosis in the absence of glycerol in the culture medium,M. tuberculosis H37Rv [1],comparable
same,MIC50,M. tuberculosis H37Rv [1]; [7],0.18 ± 0.02 µM
same,MIC50,MTB pMV262-rv0577,0.12 ± 0.01 µM
same,very rapid ATP depletion in M. tuberculosis,M. tuberculosis H37Rv [3],not observed
"Cc1ccc(NC(=O)c2ccccc2)cc1Nc1nccn1-c1cc(NC2CCCC2)ncn1 [Compound 1, N-(3-(1-(6-(Cyclopentylamino)pyrimidin-4-yl)-1H-imidazol-2-ylamino)-4-methylphenyl)benzamide]",AUC,in vivo; [8],23400 ng·h/mL
same,Cmax,in vivo; [8],4000 ng/mL
same,Tmax,in vivo; [8],1 h
same,bioavailability,in vivo; [8],100%
same,half-life,in vivo; [8],2.5 h
same,Lung AUC/MIC,"in vivo; mouse, 25 mg kg^−1, lung",31.2
same,Lung T>MIC,"in vivo; mouse, 25 mg kg^−1, lung",32
same,fAUC/MIC,"in vivo; mouse, 25 mg kg^−1",8.6
same,fT>MIC,"in vivo; mouse, 25 mg kg^−1",10%
same,T>MIC,"in vivo; mouse, 25 mg kg^−1",42%
same,Lung AUC,in vivo; [9],10.2 µg·h/g
same,CC50,in vitro,> 50 µM
same,MIC50,M. tuberculosis H37Rv [1]; [6],0.75 ± 0.32 µM
same,MIC50,M. tuberculosis H37Rv [1]; [7],0.35 ± 0.1 µM
same,MIC50,MTB pMV262-rv0577,2.32 ± 0.4 µM
same,accumulation of glycerol phosphate,M. tuberculosis H37Rv [4],significant accumulation
same,ATP pool depleted,M. tuberculosis H37Rv [3],> 75%
"NNC(=O)c1ccncc1 [Isoniazid, isoniazid, reference compound]",AUC,in vivo; [8],52000 ng·h/mL
same,Cmax,in vivo; [8],28000 ng/mL
same,fT>MIC,"in vivo; mouse, 25 mg kg^−1",62%
same,T>MIC,"in vivo; mouse, 25 mg kg^−1",68%
same,Tmax,"in vivo; mouse, single oral dose 25 mg kg^−1, plasma",0.25 h
same,activity against M. tuberculosis in the absence of glycerol in the culture medium,M. tuberculosis H37Rv [1],comparable
same,MIC50,M. tuberculosis H37Rv [1]; [7],0.42 ± 0.03 µM
same,MIC50,MTB pMV262-rv0577,0.37 ± 0.05 µM
"c1ccc(-c2nc3cc(Nc4nccn4-c4cc(NC5CCCC5)ncn4)ccc3[nH]2)cc1 [Compound 2, N-(1-(6-(Cyclopentylamino)pyrimidin-4-yl)-1H-imidazol-2-yl)-2-phenyl-1H-benzo[d]imidazol-5-amine]",AUC,in vivo; [8],10600 ng·h/mL
same,Cmax,in vivo; [8],3800 ng/mL
same,Tmax,in vivo; [8],0.5 h
same,bioavailability,in vivo; [8],100%
same,half-life,in vivo; [8],2.2 h
same,Lung AUC/MIC,"in vivo; mouse, 25 mg kg^−1, lung",44.8
same,Lung T>MIC,"in vivo; mouse, 25 mg kg^−1, lung",54
same,fAUC/MIC,"in vivo; mouse, 25 mg kg^−1",17.8
same,fT>MIC,"in vivo; mouse, 25 mg kg^−1",26%
same,T>MIC,"in vivo; mouse, 25 mg kg^−1",38%
same,Lung AUC,in vivo; [9],10.7 µg·h/g
same,CC50,in vitro,> 50 µM
same,MIC50,M. tuberculosis H37Rv [1]; [6],0.57 ± 0.23 µM
same,MIC50,M. tuberculosis H37Rv [1]; [7],0.34 ± 0.11 µM
same,MIC50,MTB pMV262-rv0577,3.53 ± 1.13 µM
same,accumulation of glycerol phosphate,M. tuberculosis H37Rv [4],significant accumulation
same,ATP pool depleted,M. tuberculosis H37Rv [3],> 75%
CC(=O)C=O [methylglyoxal],MIC50,M. tuberculosis H37Rv [1],400 µM
"COc1c(N2C[C@@H]3CCCN[C@@H]3C2)c(F)cc2c(=O)c(C(=O)O)cn(C3CC3)c12 [moxifloxacin, reference compound]",activity against M. tuberculosis in the absence of glycerol in the culture medium,M. tuberculosis H37Rv [1],comparable
same,very rapid ATP depletion in M. tuberculosis,M. tuberculosis H37Rv [3],not observed
"Cc1ccc(C(=O)N2CCOCC2)cc1Nc1nccn1-c1cc(NC2CC2)ncn1 [Compound 3, (3-(1-(6-(Cyclopropylamino)pyrimidin-4-yl)-1H-imidazol-2-ylamino)-4-methylphenyl)(morpholino)methanone]",AUC,in vivo; [8],12400 ng·h/mL
same,Cmax,in vivo; [8],3000 ng/mL
same,Tmax,in vivo; [8],0.5 h
same,bioavailability,in vivo; [8],50%
same,half-life,in vivo; [8],2.3 h
same,AUC,in vivo; [5],59300 ng·h/mL
same,Cmax,in vivo; [5],8900 ng/mL
same,Tmax,in vivo; [5],0.5 h
same,bioavailability,in vivo; [5],50%
same,half-life,in vivo; [5],3 h
same,Lung AUC/MIC,"in vivo; mouse, 25 mg kg^−1, lung",1070.6
same,Lung T>MIC,"in vivo; mouse, 25 mg kg^−1, lung",100
same,fAUC/MIC,"in vivo; mouse, 25 mg kg^−1",113.7
same,fT>MIC,"in vivo; mouse, 25 mg kg^−1",47%
same,T>MIC,"in vivo; mouse, 25 mg kg^−1",73%
same,Lung T>MIC,"in vivo; mouse, 100 mg kg^−1, lung",100
same,Lung AUC/MIC,"in vivo; mouse, 100 mg kg^−1, lung, extrapolated assuming lung exposure proportional to dose",4654.8 ^*
same,fAUC/MIC,"in vivo; mouse, 100 mg kg^−1",544.6
same,fT>MIC,"in vivo; mouse, 100 mg kg^−1",82%
same,T>MIC,"in vivo; mouse, 100 mg kg^−1",100%
same,exposure versus dose,"in vivo; mouse, 25 and 100 mg kg^−1",proportional to dose
same,Lung AUC,in vivo; [9],17.5 µg·h/g
same,CC50,in vitro,> 50 µM
same,MIC50,M. tuberculosis H37Rv [1]; [6],0.036 ± 0.04 µM
